Reference: patent US12528846B2, “BH4 stabilized peptides and uses thereof” (Dana-Farber Cancer Institute, Inc., priority 2013, dated 2026)
“Also recorded” adds a separate entry of the source. Positions of bridges follow the written chain, without caps; N, C: chain ends. Non-standard residues stand in square brackets, D forms with d. Residues, ends and D or L forms follow the SMILES beside them. S5 = C=CCCC[C@](C)(N)C(=O)O; Nle = CCCC[C@H](N)C(=O)O

Tests used:
[1] = tested on: BAX-overexpressing HeLa cells; test: Viability of transfected HeLa cells treated with staurosporine (CellTiter-Glo); assay type: cell-based; conditions: 325 nM staurosporine, 24-hour treatment
Protocol: Viability of the transfected cells subjected to 24-hour treatment with 325 nM staurosporine or no treatment with staurosporine was determined by addition of CellTiter-Glo reagent (Promega). The data shown in FIG. 20A are representative of three independent experiments.
This BCL-2-based rescue is negated upon co-expression of BAX with the L23A mutant form of BCL-2 (FIG. 20A).

endogenous BAX = target: T1, endogenous BAX (Homo sapiens, UniProt Q07812); test: Streptavidin pull-down of biotinylated SAHB from HeLa cell lysates; assay type: binding; conditions: 20 μM biotinylated peptide, 16 hrs at 4° C.
T1 construct: endogenous in cells; host or cells: HeLa
Protocol: HeLa cell lysates (0.5 mg) were incubated with vehicle (DMSO), biotinylated BCL-2 BH4 SAHBA (20 μM), or BCL-2 BH4 SAHBA L23A (20 μM) for 16 hrs at 4° C. prior to addition of high-capacity streptavidin agarose resin (Thermo Scientific). After three successive washes, associated protein was eluted from the resin into LDS sample buffer and analyzed by Western blot with the anti-BAX N20 antibody (Santa Cruz). […] The immunoblot in FIG. 19B is representative of three independent experiments.

Recombinant BAX [2] = target: T2, Recombinant BAX (Homo sapiens, UniProt Q07812); test: HXMS of recombinant BAX with liposomes, BIM SAHB with or without BCL-2 BH4 SAHBA; assay type: biochemical; conditions: molar equivalent of BIM SAHB plus two molar excess of peptide
T2 construct: made in house
Protocol: Recombinant BAX protein was pre-equilibrated for 15 min with liposomes in the presence or absence of a molar equivalent of BIM SAHB (FIG. 15B) or a molar equivalent of BIM SAHB and a two molar excess of BCL-2 BH4 SAHBA (FIG. 15C), and then labeled with deuterium for 10 seconds, 1 minute, 10 minutes, and 2 hours. Following the corresponding incubation period in D20 buffer, each sample was quenched with ice-cold guanidine chloride buffer (pH 2.6) and then subjected to proteolysis on ice for 5 minutes. The samples were next injected on a custom Waters NanoACQUITY UPLC HDX Manager for analysis as described above. Mass spectra were obtained with a Synapt G2 mass spectrometer (Waters Corporation) and analyzed with the DynamX software package (Waters Corporation). The data shown in FIG. 15B are the duplicate of two experiments, where the relative difference (Da) shown for each BAX peptide fragment is equivalent to the relative deuterium uptake of the peptide in the BIM SAHB-activated BAX sample minus the relative deuterium uptake of the corresponding peptide in the BAX alone control. […] Mass spectra were obtained with a Synapt G2 mass spectrometer (Waters Corporation) and analyzed with the DynamX software package (Waters Corporation). […]

Recombinant BAX [3] = target: T2, Recombinant BAX; test: HXMS of recombinant BAX with or without BCL-2 BH4 SAHBA; assay type: binding; conditions: two molar excess of peptide, 10 seconds to 2 hours
Protocol: In additional studies, recombinant BAX protein was labeled with deuterium in the presence or absence of a two molar access of BCL-2 BH4 SAHBA for 10 seconds, 1 minute, 10 minutes, and 2 hours. Following the corresponding incubation period in D20 buffer, each sample was quenched with ice-cold phosphate buffer (pH 2.5) and injected on a custom Waters NanoACQUITY UPLC HDX Manager for analysis as described in Wales et al. (Anal. Chem. 80:6815-6820, 2008). Mass spectra were obtained with a Synapt G2 mass spectrometer (Waters Corporation) and analyzed with the DynamX software package (Waters Corporation). The data shown in FIG. 15A are the average of two duplicate experiments, where the relative difference (Da) shown for each peptide is equivalent to the relative deuterium uptake of the corresponding peptide in the BAX alone control minus the relative deuterium uptake of the peptide in the BCL-2 BH4 SAHBA-bound BAX sample. A significant relative difference is established as 0.4 Da. […] A significant relative difference in uptake is observed in the region of BAX al and the loop between α1 and α2, indicative of structural stabilization of this region of BAX protein as a result of BCL-2 BH4 SAHBA binding.

Recombinant BAX [4] = target: T2, Recombinant BAX; test: Liposomal ANTS/DPX release, heat-induced BAX activation; assay type: biochemical; conditions: 500 nM BAX, liposomes, 37° C.
[5] = Hydrogen/deuterium mass spectrometry (HXMS) of BH4 SAHB peptide alone (structural stability); assay type: physicochemical; conditions: deuterium labeling 2 seconds to 1 hour
Protocol: (§1) The structural stability of the BCL-2 BH4 staple-scan panel of SAHBs was determined by hydrogen/deuterium mass spectrometry (HXMS). In these experiments, the BH4 SAHBs were labeled with deuterium for 2 seconds, 5 seconds, 10 seconds, 1 minute, 10 minutes, and 1 hour, followed by quenching with cold phosphate buffer (pH 2.5), and then immediately subjected to desalting and injection on a LCT Premier Mass Spectrometer (Waters Corporation). The relative uptake of deuterium was determined for each BH4 SAHB by dividing the mass of the corresponding undeuterated control. Labeling was performed with the BH4 SAHB peptide alone and following a 15-minute pre-equilibration with recombinant BAX protein (purified as previously described in Walensky et al. (Mol. Cell 24:199-210, 2006) and Gavathiotis et al. (Nature 455:1076-1081, 2008)) at a 1:2 BAX protein to BH4 SAHB peptide molar ratio.

Recombinant BAX [6] = target: T2, Recombinant BAX; test: BAX 6A7 immunoprecipitation (N-terminal conformational activation); assay type: biochemical; conditions: 1 μM BAX, liposomes, 1 μM BIM SAHB, peptide 0-2.0 μM, 30 min
Protocol: An additional experiment was performed to determine whether BCL-2 BH4 SAHB binding would be capable of preventing the N-terminal unfolding characteristic of activated BAX. In this experiment, recombinant BAX was incubated with liposomes and a molar equivalent of BIM SAHB in the presence of increasing amounts of BCL-2 BH4 SAHBA or BCL-2 BH4 SAHBA L23A. After a 30 min pre-incubation period to allow for activation to proceed, the liposomal mixtures were subjected to immunoprecipitation with the BAX 6A7 antibody (Santa Cruz), which specifically recognizes the N-terminal epitope on BAX (residues 12-24) that is exposed during activation (Hsu et al., 1997). Immunoprecipitated protein was resolved by electrophoresis and immunoblotted with an antibody specific for BAX. […] Importantly, the L23A mutant version of the BH4 peptide, which was shown in the liposomal release assay to disrupt its inhibitory activity, had no effect on BAX 6A7 reactivity. The BAX 6A7 immunoprecipitation was carried out as follows. Recombinant BAX (1 μM) was mixed with liposomes and 1 μM BIM SAHB in the presence of increasing doses of BCL-2 BH4 SAHBA or BCL-2 BH4 SAHBA L23A (0 μM, 0.25 μM, 0.5 μM, 1.0 μM, and 2.0 μM). Following a 30 min incubation at room temperature, the mixture was immunoprecipitated with a-BAX 6A7 (Santa Cruz) and resolved by electrophoresis. […]

Recombinant BAX [7] = target: T2, Recombinant BAX; test: Liposomal ANTS/DPX release, BIM SAHBA-triggered BAX activation; assay type: biochemical; conditions: 1.5 μM BIM SAHBA, 0.75 μM BAX, variety of peptide concentrations
Protocol: In these experiments, the BCL-2 BH4 SAHBA and unmodified BCL-2 BH4 peptide were incubated with 1.5 μM BIM SAHBA (Gavathiotis et al., Nature 455:1076-1081, 2008), 0.75 μM recombinant BAX protein, and 5 μL liposomes loaded with the ANTS and DPX (described above) at a variety of different concentrations.
A complete panel of BCL-2 BH4 SAHBA alanine and glutamine point mutants (0.75 μM) were screened for inhibition of BIM SAHBA (0.75 μM)-triggered BAX activation (0.75 μM) using the liposome release assay described above. The data were normalized to a 100% percent positive control level of liposome release achieved using BIM SAHBA and BAX alone, after correction for any intrinsic fluorescence detected for each FITC-labeled BCL-2 BH4 SAHB (0%). […] The alanine scanning data are also useful for designing the placement of staples in the BCL-2 BH4 peptides.

Recombinant BAX [8] = target: T2, Recombinant BAX; test: HXMS of BH4 SAHBs after pre-equilibration with recombinant BAX protein; assay type: binding; conditions: 15-minute pre-equilibration, 1:2 BAX protein to BH4 SAHB molar ratio
Protocol: as §1

T2 sequence (Q07812 whole entry): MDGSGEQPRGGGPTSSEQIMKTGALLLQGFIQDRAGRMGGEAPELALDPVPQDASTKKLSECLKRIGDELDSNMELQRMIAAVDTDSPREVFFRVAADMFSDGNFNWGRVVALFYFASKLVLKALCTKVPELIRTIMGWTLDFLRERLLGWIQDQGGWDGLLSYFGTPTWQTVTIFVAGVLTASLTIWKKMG
T1 sequence (Q07812 whole entry): as above

Row | pull-down of BAX from HeLa cell lysates (endogenous BAX) | pull-down of BAX from HeLa cell lysates (endogenous BAX; listed as biotinylated-BCL-2 BH4 SAHBA) | deuterium uptake by BAX protein upon peptide engagement (Recombinant BAX [3]) | heat-induced activation of BAX and BAX-mediated poration (Recombinant BAX [4]) | relative deuterium uptake of BH4 SAHB peptide alone [5] | deuterium uptake of BH4 SAHB upon addition of recombinant BAX protein (Recombinant BAX [8]) | Compound | apoptosis of transfected HeLa cells [1] | differences in relative uptake of BIM SAHB-treated BAX compared to BAX alone (Recombinant BAX [2]) | BAX 6A7 reactivity (BIM SAHB-triggered BAX activation) (Recombinant BAX [6]) | BAX activation in response to BIM SAHBA treatment (liposomal poration) (Recombinant BAX [7])
1 |  |  |  |  |  |  | CN[C@@H]1C[C@H]2O[C@@](C)([C@@H]1OC)n1c3ccccc3c3c4c(c5c6ccccc6n2c5c31)C(=O)NC4 [staurosporine] | induces apoptosis |  |  | 
2 | specifically interacted | specifically immunoprecipitated | decrease in deuterium uptake | dose-responsively decreased | markedly reduced uptake | reduced uptake | CCCC[C@H](NC(=O)[C@@H](NC(=O)[C@@H](NC(=O)[C@H](CCC(=O)O)NC(C)=O)[C@@H](C)CC)C(C)C)C(=O)N[C@@H](CCCCN)C(=O)N[C@@H](Cc1ccc(O)cc1)C(=O)N[C@H](C(=O)N[C@@H](Cc1c[nH]cn1)C(=O)N[C@@H](Cc1ccc(O)cc1)C(=O)N[C@@H](CCCCN)C(=O)N[C@@H](CC(C)C)C(=O)N[C@@H](CO)C(=O)N[C@@]1(C)CCCC=CCCC[C@@](C)(C(=O)N[C@@H](Cc2c[nH]c3ccccc23)C(=O)N[C@@H](CC(=O)O)C(=O)N[C@@H](C)C(N)=O)NC(=O)[C@H](Cc2ccc(O)cc2)NC(=O)CNC(=O)[C@H](CCCNC(=N)N)NC1=O)[C@@H](C)CC [BCL-2 BH4 SAHBA] (Ac-EIV[Nle]KYIHYKLS[S5]RGY[S5]WDA-NH2; staple 13-17; N-terminus and C-terminus assumed) |  | complete suppression; also recorded: can block the changes in BAX conformation | dose-responsively reduces; also recorded: dose-responsively inhibited | dose-responsively decreased; also recorded: dose-responsively blocks
